Read-outs that look alike come from different tables or passages of the source. Blank lines part the entries; values can stand above or below the compound they belong to.
Target: human factor Xa (FXa) (Homo sapiens, UniProt P00742)
Assay: Measurement of factor Xa inhibition (chromogenic substrate)
Format: biochemical
Experimental: a.1) Measurement of Factor Xa Inhibition
In this case, factor Xa eliminates p-nitroaniline from the chromogenic substrate.
The test substances were dissolved in various concentrations in DMSO and incubated with human FXa (0.5 nmol/l dissolved in 50 mmol/l tris buffer [C,C,C-tris(hydroxymethyl)-aminomethane], 150 mmol/l NaCl, 0.1% BSA (bovine serum albumine), pH=8,3) at 25° C. for 10 minutes. Pure DMSO serves as control.

Sequence of human factor Xa (FXa) (P00742 235-488 limits assumed): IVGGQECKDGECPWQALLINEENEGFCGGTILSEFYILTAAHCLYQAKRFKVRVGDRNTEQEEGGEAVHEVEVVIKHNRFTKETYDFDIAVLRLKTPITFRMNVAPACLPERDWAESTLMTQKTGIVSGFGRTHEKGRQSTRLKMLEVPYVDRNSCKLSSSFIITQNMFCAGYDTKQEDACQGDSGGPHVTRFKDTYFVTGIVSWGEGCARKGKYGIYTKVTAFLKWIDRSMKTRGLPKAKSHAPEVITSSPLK
Sequence of human factor Xa (FXa) (P00742 41-179 partner limits assumed): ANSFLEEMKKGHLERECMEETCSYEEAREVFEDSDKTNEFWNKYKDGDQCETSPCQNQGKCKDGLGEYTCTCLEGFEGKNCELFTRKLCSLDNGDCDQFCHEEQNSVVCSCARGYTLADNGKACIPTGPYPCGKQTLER

SMILES: CN(C)S(=O)(=O)c1ccc(N2C[C@H](CNC(=O)c3ccc(Cl)s3)OC2=O)cc1 [Example 40, 5-Chloro-N-[((5S)-3-{4-[(dimethylamino)sulfonyl]phenyl}-2-oxo-1,3-oxazolidin-5-yl)methyl]-2-thiophenecarboxamide]
IC50 (factor Xa inhibition): 90 nM

SMILES: CC(C)(C)OC(=O)NC1CCCN(c2ccc(N3CC(CNC(=O)c4ccc(Cl)s4)OC3=O)cc2F)C1 (centres unmarked) [Example 135]
IC50: 1100 nM

SMILES: O=C(NC[C@H]1CN(c2ccc(N3CCS(=O)(=O)CC3)c(F)c2)C(=O)O1)c1ccc(Cl)s1 [Example 15, 5-chloro-N-({(5S)-3-[4-(1,1-dioxo-1[lambda]^6,4-thiazinan-4-yl)-3-fluorophenyl]-2-oxo-1,3-oxazolidin-5-yl}methyl)-2-thiophenecarboxamide]
IC50 (factor Xa inhibition): 210 nM

SMILES: CC(=O)N(c1ccc(N2CC(CNC(=O)c3ccc(Cl)s3)OC2=O)cc1)C1CC1 (centres unmarked) [Example 98, N-[(3-{4-[Acetyl(cyclopropyl)amino]phenyl}-2-oxo-1,3-oxazolidin-5-yl)methyl]-5-chloro-2-thiophenecarboxanmide]
IC50 (factor Xa inhibition): 50 nM

SMILES: Cc1ccc(C(=O)NC[C@H]2CN(c3ccc(N4CCCC4=O)cc3)C(=O)O2)s1 [Example 57]
IC50 (table of Examples 48-58): 580 nM

SMILES: O=C(NC[C@H]1CN(c2ccc(N3CCCCC3=O)cc2)C(=O)O1)c1ccc(Br)s1 [Example 129]
IC50: 1 nM

SMILES: O=C(NC[C@H]1CN(c2ccc(S(=O)(=O)N3CCOCC3)cc2)C(=O)O1)c1ccc(Cl)s1 [Example 38, 5-Chloro-N-({(5S)-3-[4-(4-morpholinylsulfonyl)phenyl]-2-oxo-1,3-oxazolidin-5-yl}methyl)-2-thiophenecarboxamide]
IC50 (factor Xa inhibition): 2000 nM

SMILES: O=C(NC[C@H]1CN(c2ccc(N3CC[S+]([O-])CC3)c(F)c2)C(=O)O1)c1ccc(Cl)s1 [Example 14, 5-Chloro-N-({(5S)-3-[3-fluoro-4-(1-oxo-1[lambda]^4,4-thiazinan-4-yl)phenyl]-2-oxo-1,3-oxazolidin-5-yl}methyl)-2-thiophenecarboxamide]
IC50 (factor Xa inhibition): 1100 nM

SMILES: O=C(NC[C@H]1CN(c2ccc(S(=O)(=O)N3CCC3)cc2)C(=O)O1)c1ccc(Cl)s1 [Example 39, 5-Chloro-N-({(5S)-3-[4-(1-azetidinylsulfonyl)phenyl]-2-oxo-1,3-oxazolidin-5-yl}methyl)-2-thiophenecarboxamide]
IC50 (factor Xa inhibition): 840 nM

SMILES: CC1(N)CCN(c2ccc(N3CC(CNC(=O)c4ccc(Cl)s4)OC3=O)cc2F)CC1 (centres unmarked) [Example 136]
IC50: 1200 nM

SMILES: O=C(NC[C@H]1CN(c2ccc(N3CCCC3=O)c(F)c2)C(=O)O1)c1ccc(Cl)s1 [Example 130]
IC50: 3.3 nM

SMILES: O=C(NC[C@H]1CN(c2ccc(N3CCOC3=O)cc2)C(=O)O1)c1ccc(Cl)s1 [Example 55]
IC50 (table of Examples 48-58): 40 nM

SMILES: O=C(NC[C@H]1CN(c2ccc(N3CCCC3=O)c(F)c2)C(=O)O1)c1ccc(Br)s1 [Example 128]
IC50: 2 nM

SMILES: NC1CCCN(c2ccc(N3CC(CNC(=O)c4ccc(Cl)s4)OC3=O)cc2F)C1 (centres unmarked) [Example 137]
IC50: 44 nM

SMILES: O=C(NCC1CN(c2ccc(N3CCC3)c(F)c2)C(=O)O1)c1ccc(Cl)s1 (centres unmarked) [Example 132]
IC50: 120 nM

SMILES: O=C(NCC1CN(c2ccc(N3CCCC3=O)cc2)C(=O)O1)c1cccs1 (centres unmarked) [Example 41, N-({2-oxo-3-[4-(2-oxo-1-pyrrolidinyl)phenyl]-1,3-oxazolidin-5-yl}methyl)-2-thiophenecarboxamide]
IC50 (factor Xa inhibition): 1300 nM

SMILES: NC1CCN(c2ccc(N3CC(CNC(=O)c4ccc(Cl)s4)OC3=O)cc2F)C1 (centres unmarked) [Example 126]
IC50: 13 nM

SMILES: CCN(CC)c1ccc(N2C[C@H](CNC(=O)c3ccc(Cl)s3)OC2=O)cc1 [Example 19, 5-Chloro-N-({(5S)-2-oxo-3-[4-(diethylamino)phenyl]-1,3-oxazolidin-5-yl}methyl)-2-thiophenecarboxamide]
IC50 (factor Xa inhibition): 270 nM

The next lines start with the values.

IC50 (factor Xa inhibition): 380 nM
SMILES: O=C(NC[C@H]1CN(c2ccc(N3CCC3=O)cc2)C(=O)O1)c1ccc(Cl)s1 [Example 164, 5-Chloro-N-({(5S)-2-oxo-3-[4-(2-oxo-1-azetidinyl)phenyl]-1,3-oxazolidin-5-yl}-methyl)-2-thiophenecarboxamide]

IC50 (factor Xa inhibition): 2000 nM
SMILES: Nc1ccc(N2CC(CNC(=O)c3ccc(Cl)s3)OC2=O)cc1 (centres unmarked) [Example 149, N-{[3-(4-Aminophenyl)-2-oxo-1,3-oxazolidin-5-yl]methyl}-5-chloro-2-thiophenecarboxamide]

IC50 (factor Xa inhibition): 1300 nM
SMILES: NC(=O)NCc1ccc(N2CC(CNC(=O)c3ccc(Cl)s3)OC2=O)cc1 (centres unmarked) [Example 154, N-{[3-(4-{[(Aminocarbonyl)amino]methyl}phenyl)-2-oxo-1,3-oxazolidin-5-yl]-methyl}-5-chloro-2-thiophenecarboxamide]

IC50 (factor Xa inhibition): 460 nM
SMILES: Cc1noc(C)c1C(=O)Nc1ccc(N2CC(CNC(=O)c3ccc(Cl)s3)OC2=O)cc1 (centres unmarked) [Example 158, N-{4-[5-({[(5-Chloro-2-thienyl)carbonyl]amino}methyl)-2-oxo-1,3-oxazolidin-3-yl]phenyl}-3,5-dimethyl-4-isoxazolecarboxamide]

IC50 (factor Xa inhibition): 730 nM
SMILES: COCC(=O)Nc1ccc(N2CC(CNC(=O)c3ccc(Cl)s3)OC2=O)cc1 (centres unmarked) [Example 157, 5-Chloro-N-[(3-{4-[(methoxyacetyl)amino]phenyl}-2-oxo-1,3-oxazolidin-5-yl)-methyl]-2-thiophenecarboxamide]

IC50: 420 nM
SMILES: O=C(NCC1CN(c2ccc(NCCCO)cc2)C(=O)O1)c1ccc(Cl)s1 (centres unmarked) [Example 138]

IC50: 1700 nM
SMILES: O=C(NCC1CN(c2ccc(-n3cccc3)cc2)C(=O)O1)c1ccc(Cl)s1 (centres unmarked) [Example 139]

IC50 (factor Xa inhibition): 2000 nM
SMILES: NCC1CN(c2ccc(N3CCCC3=O)cc2)C(=O)O1 (centres unmarked) [Example 151, 5-(Aminomethyl)-3-[4-(2-oxo-1-pyrrolidinyl)phenyl]-1,3-oxazolidin-2-one]

IC50 (factor Xa inhibition): 1700 nM
SMILES: O=C(NCC1CN(c2ccc(NS(=O)(=O)CCCCl)cc2)C(=O)O1)c1ccc(Cl)s1 (centres unmarked) [Example 159, 5-Chloro-N-{[3-(4-{[(3-chloropropyl)sulfonyl]amino}phenyl)-2-oxo-1,3-oxazolidin-5-yl]methyl}-2-thiophenecarboxamide]

IC50 (factor Xa inhibition): 2000 nM
SMILES: CC(C)(C)OC(=O)N1CC(=O)N(c2ccc(N3CC(CNC(=O)c4ccc(Cl)s4)OC3=O)cc2)C(=O)C1 (centres unmarked) [Example 165, tert-Butyl 4-{4-[5-({[(5-chloro-2-thienyl)carbonyl]amino}methyl)-2-oxo-1,3-oxazolidin-3-yl]phenyl}-3,5-dioxo-1-piperazinecarboxylate]

IC50 (factor Xa inhibition): 1200 nM
SMILES: CC(=O)Nc1ccc(N2CC(CNC(=O)c3ccc(Cl)s3)OC2=O)cc1 (centres unmarked) [Example 155, N-({3-[4-(Acetylamino)phenyl]-2-oxo-1,3-oxazolidin-5-yl}methyl)-5-chloro-2-thiophenecarboxamide]

IC50 (factor Xa inhibition): 140 nM
SMILES: O=C(NCC1CN(c2ccc(N3CCCS3(=O)=O)cc2)C(=O)O1)c1ccc(Cl)s1 (centres unmarked) [Example 160, 5-Chloro-N-({3-[4-(1,1-dioxido-2-isothiazolidinyl)phenyl]-2-oxo1,3-oxazolidin-5-yl}methyl)-2-thiophenecarboxamide]

IC50 (factor Xa inhibition): 2200 nM
SMILES: NCc1ccc(N2CC(CNC(=O)c3ccc(Cl)s3)OC2=O)cc1 (centres unmarked) [Example 148, N-({3-[4-(Aminomethyl)phenyl]-2-oxo-1,3-oxazolidin-5-yl}methyl)-5-chloro-2-thiophenecarboxamide]

IC50 (factor Xa inhibition): 1300 nM
SMILES: O=C(Nc1ccc(N2CC(CNC(=O)c3ccc(Cl)s3)OC2=O)cc1)c1cccs1 (centres unmarked) [Example 156, 5-Chloro-N-[(2-oxo-3-{4-[(2-thienylcarbonyl)amino]phenyl}-1,3-oxazolidin-5-yl)methyl]-2-thiophenecarboxamide]

— patent US20040242660A1, “Substituted oxazolidinones for combinational therapy” (priority 2001, published 2004)
